Measurements as given in US20240108634A1, “COMPOSITIONS AND METHODS FOR INHIBITING YAP” (The United States Government as represented by the …, priority 2021, published 2024).

How the values were obtained:
normal human neurons = test: TUNEL staining of normal human neurons; type: cell-based; conditions: 48 h exposures
Description: Data shown are mean+S.D., n=3.
Materials and Methods. Cell culture, vectors and reagents. Normal mature human neurons were obtained from ScienCell (Carlsbad, CA). Lines were routinely tested to confirm the absence of mycoplasma and authenticated by short tandem repeat profiling (ATCC). The myc-tagged TEAD (pRK5-Myc-TEAD1) and HA-tagged YAP1 (pCl-HA-YAP) vectors were used for mammalian expression and TEAD was subcloned into pGEX-2TK, while YAP was subcloned into pET-14b for bacterial expression and purification. DNA transfections were performed using Effectene transfection reagent according to the manufacturer (QIAGEN) and lentiviral transductions were performed as previously described (Rosenbluh J, et al. (2012) Cell 151: 1457-1473). Large-scale syntheses of NSC682769 was performed by New England Discovery Partners, Branford, CT. The other reagents including kits for ALT, AST and creatinine level determinations were from Sigma-Aldrich.

full-length YAP = target: T1, full-length YAP (Homo sapiens, UniProt P46937); test: Surface plasmon resonance of NSC682769 analyte on immobilized full-length YAP; conditions: SPR, 25° C., read-out: Kd from steady-state binding
T1 construct: made in house; host or cells: bacterial (inferred)
Procedure: FIGS. 1A-G show the identification of a YAP1-TEAD1 binding interface inhibitor. […] The Gal4 DBD was fused to residues 50-171 of human YAP1 and the Gal4 AD was fused to residues 194-411 of human TEAD1. These fusions were expressed in yeast containing reporters harboring Gal4 upstream activating sequences (UAS). […] Yeast expressing either p53-DBD and SV40 large T antigen-AD fusions or YAP1-DBD and TEAD1-AD fusions were plated on selective media. Compounds were pinned onto the plate surfaces by robotic transfer and subsequently examined for halo formation (indicated by red circles). Compounds inhibiting YAP1-TEAD1 mediated growth on selective media while having no effect on p53-T antigen mediated yeast growth were considered specific. […] Pull-down products were analyzed by SDS-PAGE and silver staining. […] Raw binding sensorgrams obtained at each concentration were fitted to a 1:1 binding model and Kon, Koff and KD were calculated by simultaneous non-linear regression analyses.
Surface plasmon resonance (SPR), ELISA, YAP-TEAD reporter activity, cellular fractionation, and immunofluorescence analyses. […] YAP-TEAD reporter activity was determined as previously described (Kim N G, Gumbiner B M (2015) J Cell Biol 210: 503-515). […] Luciferase activity was measured via a luciferase assay system (Promega). […] Cell lysis was monitored by trypan blue staining. […]

[1] = test system: GFAP-EGFRvIII×GFAP-Cre+/Rictor glioma GEMM; test: Survival of GFAP-EGFRvIII; GFAP-Cre/Rictor transgenic glioma mice; type: in vivo
Procedure: FIGS. 9A-B show GEMM survival and brain/blood plasma concentrations following treatment with NSC682769. […] C57/BL6 mice were administered NSC682769 IV and mean brain and plasma concentrations were determined via HPLC analyses. (n=5).
Animal studies. Xenografts of LN229 cells were performed in 4-6-week-old female C.B.-17-scid (Taconic) mice as previously described (Holmes B, et al. (2016) J Biol Chem 291: 14146-14159). Tumors were harvested at autopsy for immunoblot analysis. Sections of paraffin-embedded tumors on slides were processed for immunohistochemistry as previously described (Benavides-Serrato A, et al. (2017) PLoS One 12: e0176599). For GEMM studies, double transgenic GFAP-EGFRvIII; GFAP-Cre/Rictor^loxP/loxP mice as previously described were used (Bashir T, et al. (2012) PLoS One 7: e47741). Determinations of blood plasma and brain concentrations of NSC682769 following IV administration were performed in C57/BL6 mice.
NSC682769 increases survival of a glioma GEMM and penetrates the blood-brain barrier. NSC682769 was evaluated in double transgenic GFAP-EGFRvIII; GFAP-Cre/Rictor^loxP/loxP mice which overexpress both the mutant constitutively active EGFRvIII allele and the mTORC2 scaffolding component Rictor. […] To assess therapeutic activity, the effect of twice-weekly 5 or 20 mg/kg NSC682769 treatments was measured on survival.

T1 sequence (P46937 whole entry): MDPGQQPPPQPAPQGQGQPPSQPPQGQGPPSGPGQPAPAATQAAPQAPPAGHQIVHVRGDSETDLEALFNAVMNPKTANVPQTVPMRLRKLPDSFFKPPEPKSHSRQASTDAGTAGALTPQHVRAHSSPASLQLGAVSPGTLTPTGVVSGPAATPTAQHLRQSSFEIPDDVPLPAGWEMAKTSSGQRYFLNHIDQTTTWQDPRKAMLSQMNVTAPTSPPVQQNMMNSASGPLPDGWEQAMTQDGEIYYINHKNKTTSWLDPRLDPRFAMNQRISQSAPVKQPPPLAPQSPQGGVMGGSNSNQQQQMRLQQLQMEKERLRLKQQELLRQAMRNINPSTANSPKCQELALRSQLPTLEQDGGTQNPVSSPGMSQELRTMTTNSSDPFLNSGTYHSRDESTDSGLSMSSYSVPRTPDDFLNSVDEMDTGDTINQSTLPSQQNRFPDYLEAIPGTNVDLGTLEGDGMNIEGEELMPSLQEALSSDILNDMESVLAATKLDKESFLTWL

`COc1ccc(-c2cc(-c3ccccc3)nc3c2CC(=O)Nc2ccccc2-3)cc1OC` [NSC682769] was tested, and the “Toxicity to normal human neurons” value (normal human neurons) was “minimal toxicity”, the Kd (full-length YAP) was 738 nM and the “Mice surviving to 20 weeks” value ([1]; 5 mg/kg twice weekly) was 60%. The “Mice surviving at 20 weeks” value ([1]; 20 mg/kg twice weekly) was “more than 75%”.
